Data on 22 compounds can be found in article PMC3446843 (Toxicological Sciences, 2012).

Each structure is given as a SMILES string.

In one data set the test system is isolated mouse liver mitochondria. The experiment in a line: Loss of mitochondrial transmembrane potential. Particulars: 20% of maximal loss of ΔΨm (50µM mClCCP = 100%), 30-min incubation. It counts as biochemical.
On to `CO[C@@]12[C@H](COC(N)=O)C3=C(C(=O)C(C)=C(N)C3=O)N1C[C@@H]1N[C@@H]12` [Mitomycin C], for which the “ΔΨm loss EC20” value is given as over 200 µM.
`O=C1c2c(O)ccc(O)c2C(=O)c2c(NCCNCCO)ccc(NCCNCCO)c21` [Mitoxantrone]: the “ΔΨm loss EC20” value was 7.00 µM.
`Cc1c(O)cccc1C(=O)N[C@@H](CSc1ccccc1)[C@H](O)CN1C[C@H]2CCCC[C@H]2C[C@H]1C(=O)NC(C)(C)C` [Nelfinavir]: the “ΔΨm loss EC20” value is on record as 6.3 µM.
Regarding `CO[C@]12C[C@@H](COC(=O)c3cncc(Br)c3)CN(C)[C@@H]1Cc1cn(C)c3cccc2c13` [Nicergoline], the “ΔΨm loss EC20” value is reported as 82.6 µM.
`Cc1cn(-c2cc(NC(=O)c3ccc(C)c(Nc4nccc(-c5cccnc5)n4)c3)cc(C(F)(F)F)c2)cn1` [Nilotinib]: the “ΔΨm loss EC20” value was 11.5 µM.
For the compound `CS(=O)(=O)Nc1ccc([N+](=O)[O-])cc1Oc1ccccc1` [Nimesulide], the “ΔΨm loss EC20” value is on record as 10.1 µM.
For the compound `CCCCC1C(=O)N(c2ccccc2)N(c2ccccc2)C1=O` [Phenylbutazone], the “ΔΨm loss EC20” value came to 140.2 µM.
Take `CC[C@H](C)C(=O)O[C@H]1C[C@H](O)C=C2C=C[C@H](C)[C@H](CC[C@@H](O)C[C@@H](O)CC(=O)O)[C@H]21` [Pravastatin]: the “ΔΨm loss EC20” value was over 200 µM.
`CCCc1cc(=O)[nH]c(=S)[nH]1` [Propylthiouracil]: the “ΔΨm loss EC20” value worked out at 391.5 µM.
As for `Oc1ccc(/C=C/c2cc(O)cc(O)c2)cc1` [Resveratrol], the “ΔΨm loss EC20” value is reported as 395.4 µM.
Same read-out and setting: with `CO[C@H]1/C=C/O[C@@]2(C)Oc3c(C)c(O)c4c(O)c(c(/C=N/N5CCN(C)CC5)c(O)c4c3C2=O)NC(=O)/C(C)=C\C=C\[C@H](C)[C@H](O)[C@@H](C)[C@@H](O)[C@@H](C)[C@H](OC(C)=O)[C@@H]1C` [Rifampicin] the figure was over 800 µM; with `CC(C)c1nc(CN(C)C(=O)N[C@H](C(=O)N[C@@H](Cc2ccccc2)C[C@H](O)[C@H](Cc2ccccc2)NC(=O)OCc2cncs2)C(C)C)cs1` [Ritonavir], 24.8 µM; with `CC[C@H]1OC(=O)[C@H](C)[C@@H](O[C@H]2C[C@@](C)(OC)[C@@H](O)[C@H](C)O2)[C@H](C)[C@@H](O[C@@H]2O[C@H](C)C[C@H](N(C)C)[C@H]2O)[C@](C)(O)C[C@@H](C)/C(=N\OCOCCOC)[C@H](C)[C@@H](O)[C@]1(C)O` [Roxithromycin], 244.8 µM.
For `CNC(=O)c1cc(Oc2ccc(NC(=O)Nc3ccc(Cl)c(C(F)(F)F)c3)cc2)ccn1` [Sorafenib], the “ΔΨm loss EC20” value worked out at 0.5 µM.
Still for that read-out and setting: with `[H]/N=C(/N)N[C@H]1[C@H](O)[C@@H](O)[C@H](O[C@@H]2O[C@@H](C)[C@](O)(C=O)[C@H]2O[C@@H]2O[C@@H](CO)[C@H](O)[C@@H](O)[C@@H]2NC)[C@@H](N/C(N)=N\[H])[C@@H]1O` [Streptomycin] the figure was 78.8 µM; with `CCN(CC)CCNC(=O)c1c(C)[nH]c(/C=C2\C(=O)Nc3ccc(F)cc32)c1C` [Sunitinib], 23.2 µM; with `CC/C(=C(\c1ccccc1)c1ccc(OCCN(C)C)cc1)c1ccccc1` [Tamoxifen], 2.9 µM.
With `CN(C/C=C/C#CC(C)(C)C)Cc1cccc2ccccc12` [Terbinafine], the “ΔΨm loss EC20” value worked out at 12.5 µM.
For `Clc1ccccc1CN1CCc2sccc2C1` [Ticlopidine], the “ΔΨm loss EC20” value is on record as 50.5 µM.
On the same count and under the same terms, with `Cc1ccc(C(=O)c2cc(O)c(O)c([N+](=O)[O-])c2)cc1` [Tolcapone] the figure was 3.9 µM; with `Cc1c(Cl)cccc1Nc1ccccc1C(=O)O` [Tolfenamic acid], 7.1 µM.
With `COc1cccc(C2(O)CCCCC2CN(C)C)c1` (stereo not drawn) [Tramadol], the “ΔΨm loss EC20” value turned out to be 263.8 µM.

Still in this data set, the particulars now being: ΔΨm and respiration.
For the compound `Cc1c(O)cccc1C(=O)N[C@@H](CSc1ccccc1)[C@H](O)CN1C[C@H]2CCCC[C@H]2C[C@H]1C(=O)NC(C)(C)C` [Nelfinavir], the “concentrations collapsing the ΔΨm and altering the mitochondrial respiration” value is on record as “lower than 50 μM”.
In the case of `CC(C)c1nc(CN(C)C(=O)N[C@H](C(=O)N[C@@H](Cc2ccccc2)C[C@H](O)[C@H](Cc2ccccc2)NC(=O)OCc2cncs2)C(C)C)cs1` [Ritonavir], the “concentrations collapsing the ΔΨm and altering the mitochondrial respiration” value is on record as “lower than 50 μM”.
